Source: patent US10945969B2, “Compositions containing thymohydroquinone and their method of preparation” (SAMI LABS LIMITED, priority 2017, dated 2021)
Values belong to the compound of their own block, whether it stands above or below them.

What was measured:
[1] = Accelerated stability study; assay type: physicochemical; settings: for THQ content by GC (%) / Difference in THQ content (%) / Percentage difference in THQ / TQ content by GC (%) / Difference in TQ content / Percentage difference in TQ: accelerated stability
[2] = Long term stability study; assay type: physicochemical
[3] = compared with thymoquinone; cited from earlier work
[4] = compared with thymoquinone; cited from earlier work; remark: listed apart in the source
[5] = over the accelerated stability study

THQ content by GC (%) ([1]; 1st month): 0.037% | Difference in THQ content (%) ([1]; 1st month vs initial): 0.004% | Percentage difference in THQ ([1]; 1st month vs initial): +12.12% | THQ content by GC (%) ([1]; 2nd month): 0.041% | Difference in THQ content (%) ([1]; 2nd month vs initial): 0.008% | Percentage difference in THQ ([1]; 2nd month vs initial): +24.24% | THQ content by GC (%) ([1]; 3rd month): 0.092% | Difference in THQ content (%) ([1]; 3rd month vs initial): 0.059% | Percentage difference in THQ ([1]; 3rd month vs initial): +178.78% | THQ content by GC (%) ([1]; 6th month): 0.120% | Difference in THQ content (%) ([1]; 6th month vs initial): 0.087% | Percentage difference in THQ ([1]; 6th month vs initial): +263.63% | Difference in THQ content (%) ([1]; Initial (0 month)): 0% | Percentage difference in THQ ([1]; Initial (0 month)): 0% | THQ content by GC (%) ([1]; Initial (0 month)): 0.033% | thymohydroquinone quantity, trend [1, 5]: gradual increase | THQ content by GC (%) ([2]; 3rd month): 0.095% | Difference in THQ content ([2]; 3rd month vs initial): 0.062% | Percentage difference in THQ ([2]; 3rd month vs initial): +187.88% | THQ content by GC (%) ([2]; 6th month): 0.138% | Difference in THQ content ([2]; 6th month vs initial): 0.105% | Percentage difference in THQ ([2]; 6th month vs initial): +318.18% | Difference in THQ content ([2]; Initial (0 Month)): 0% | Percentage difference in THQ ([2]; Initial (0 Month)): 0% | THQ content by GC (%) ([2]; Initial (0 Month)): 0.033%
SMILES: Cc1cc(O)c(C(C)C)cc1O [THQ, thymohydroquinone]
antioxidant potential [3]: more potent | anti-inflammatory potential [4]: more potent

TQ content by GC (%) ([1]; 1st month): 0.717% | Difference in TQ content ([1]; 1st month vs initial): 0.016% | Percentage difference in TQ ([1]; 1st month vs initial): −2.18% | TQ content by GC (%) ([1]; 2nd month): 0.706% | Difference in TQ content ([1]; 2nd month vs initial): 0.027% | Percentage difference in TQ ([1]; 2nd month vs initial): −3.68% | TQ content by GC (%) ([1]; 3rd month): 0.622% | Difference in TQ content ([1]; 3rd month vs initial): 0.111% | Percentage difference in TQ ([1]; 3rd month vs initial): −15.14% | TQ content by GC (%) ([1]; 6th month): 0.548% | Difference in TQ content ([1]; 6th month vs initial): 0.185% | Percentage difference in TQ ([1]; 6th month vs initial): −25.23% | Difference in TQ content ([1]; Initial (0 month)): 0% | Percentage difference in TQ ([1]; Initial (0 month)): 0% | TQ content by GC (%) ([1]; Initial (0 month)): 0.733% | content of thymoquinone, trend [1, 5]: decrease | TQ content by GC (%) ([2]; 3rd month): 0.643% | Difference in TQ content ([2]; 3rd month vs initial): 0.09% | Percentage difference in TQ ([2]; 3rd month vs initial): −12.27% | TQ content by GC (%) ([2]; 6th month): 0.634% | Difference in TQ content ([2]; 6th month vs initial): 0.099% | Percentage difference in TQ ([2]; 6th month vs initial): −13.50% | Difference in TQ content ([2]; Initial (0 Month)): 0% | Percentage difference in TQ ([2]; Initial (0 Month)): 0% | TQ content by GC (%) ([2]; Initial (0 Month)): 0.733%
SMILES: CC1=CC(=O)C(C(C)C)=CC1=O [TQ, thymoquinone]
